Data as given in the NIST ThermoML archive (doi:10.1016/j.jct.2015.02.010).
“And” between values parts separate entries of the source, which are not always exact repeats. Identical values can stand only once.

What was measured:
[1] = Crystal; for vapor or sublimation pressure: Calculated from knudsen effusion weight loss; for Normal melting temperature: DTA
[2] = Molar enthalpy of transition or fusion; conditions: Crystal; DSC

CC(=O)Nc1ccccc1C(=O)O [2-acetamidobenzoic acid]
[1]
Conditions	vapor or sublimation pressure
367.17 K	8.3e-05 kPa
369.28 K	0.000109 kPa and 0.000106 kPa and 0.000108 kPa
371.16 K	0.000128 kPa
373.16 K	0.00016 kPa and 0.000163 kPa
375.26 K	0.000207 kPa and 0.00021 kPa
377.16 K	0.000248 kPa and 0.000255 kPa and 0.000258 kPa
379.19 K	0.000305 kPa and 0.000303 kPa and 0.000308 kPa
381.29 K	0.000385 kPa and 0.000373 kPa and 0.000378 kPa
383.16 K	0.000438 kPa
385.15 K	0.000577 kPa and 0.000561 kPa and 0.000574 kPa
387.26 K	0.000697 kPa and 0.000711 kPa and 0.00078 kPa
389.15 K	0.000829 kPa and 0.00084 kPa

Conditions	Molar enthalpy of transition or fusion [kcal/mol]	Normal melting temperature [°C]
[1]	–	181.96
[2]	7.01	–

CC(=O)Oc1ccccc1C(=O)O [2-acetoxybenzoic acid]
[1]
Conditions	vapor or sublimation pressure
341.11 K	0.00012 kPa and 0.000119 kPa
343.24 K	0.000147 kPa and 0.000158 kPa
345.28 K	0.000194 kPa and 0.000203 kPa
347.1 K	0.00023 kPa and 0.000238 kPa
349.24 K	0.00029 kPa and 0.000305 kPa
351.27 K	0.000378 kPa and 0.000387 kPa
353.1 K	0.000478 kPa and 0.000471 kPa
355.28 K	0.000599 kPa and 0.000643 kPa
357.27 K	0.000744 kPa and 0.000796 kPa
359.23 K	0.00089 kPa and 0.000966 kPa
361.11 K	0.001165 kPa

Conditions	Molar enthalpy of transition or fusion [kcal/mol]	Normal melting temperature [°C]
[1]	–	134.23
[2]	8.09	–

CC(=O)Nc1cccc(C(=O)O)c1 [3-(acetylamino)benzoic acid]
[1]
Conditions	vapor or sublimation pressure
423.22 K	0.000156 kPa
425.28 K	0.000193 kPa and 0.000189 kPa
427.09 K	0.000223 kPa and 0.000219 kPa
429.23 K	0.000279 kPa and 0.000283 kPa
431.28 K	0.000336 kPa and 0.000341 kPa
433.24 K	0.00041 kPa and 0.000419 kPa
435.1 K	0.000495 kPa and 0.000496 kPa
437.29 K	0.000619 kPa and 0.000621 kPa
439.23 K	0.000751 kPa and 0.000744 kPa
441.1 K	0.000886 kPa and 0.000907 kPa

Conditions	Molar enthalpy of transition or fusion [kcal/mol]	Normal melting temperature [°C]
[1]	–	249.04
[2]	10.1	–

CC(=O)Oc1cccc(C(=O)O)c1 [3-acetoxybenzoic acid]
[1]
Conditions	vapor or sublimation pressure
344.16 K	0.000129 kPa and 0.000124 kPa and 0.000123 kPa
346.15 K	0.000158 kPa and 0.000163 kPa and 0.000157 kPa
348.2 K	0.000198 kPa and 0.000199 kPa and 0.000205 kPa
350.13 K	0.000251 kPa and 0.00025 kPa and 0.000257 kPa
353.17 K	0.000355 kPa and 0.000357 kPa and 0.00037 kPa
356.21 K	0.000497 kPa and 0.000499 kPa and 0.00051 kPa
358.16 K	0.000631 kPa and 0.000652 kPa
360.17 K	0.000813 kPa and 0.00081 kPa
362.16 K	0.000967 kPa and 0.000966 kPa and 0.001004 kPa

Conditions	Molar enthalpy of transition or fusion [kcal/mol]	Normal melting temperature [°C]
[1]	–	131.61
[2]	6.28	–
